Peptide text beside a SMILES is read from it.
Legend:
[1] = Stability of Mg(G3) in solution via 1H NMR; assay type: physicochemical; details: 1H NMR in D2O; periods up to 72 hrs
From the text: At 72 hrs, an observable upfield shift occurs, which may be due to isomer formation. There is no observable change in proton integration. NMR taken in D2O.

Caco-2 cells = experiment: Cellular uptake in Caco-2 cells, BioVision colorimetric magnesium uptake assay kit; assay type: in vitro ADME; details: compared with other magnesium complexes
From the text: 18 MΩ Ultrapure water was obtained in-house.

Molecule	stability in solution [1]	cellular uptake in CaCo-2 cell line (FIG. 72) (Caco-2 cells)
NCC(=O)NCC(=O)NCC(=O)[O-].[Mg+2].[OH-] [Mg(G3), magnesium 2-[[2-[(2-aminoacetyl)amino]acetyl]amino]acetic acid chelate] (H-Gly-Gly-Gly-OH)	considerable stability	–
NCC(=O)[O-].NCC(=O)[O-].[Mg+2] [MgBG, magnesium bisglycinate, reference compound]	–	significantly less cellular uptake than Mg(G3)
magnesium diglycine [MgG2]	–	relatively linear uptake

Source: patent US20210371374A1, “METAL DI-AMINO ACID CHELATES OR METAL TRI-AMINO ACID CHELATES” (Balchem Corporation, priority 2020, published 2021)
